Patent US20260248784A1, “BTK Degrader and Use Thereof” (JIANGSU VCARE PHARMATECH CO., LTD., priority 2023, published 2026)
Read-outs that look alike come from different tables or passages of the source.

What was measured:
[1] = system: mino cells; experiment: Activity test in Mino cells (CCK8 proliferation inhibition); format: cell-based; details: Homo sapiens, 72 h, 3 days, read-out: Cell inhibition IC50
Experimental: Cell culture: mino cells (culture conditions: RPMI1640 medium+15% FBS, 37° C., 5% CO2). Cell plating: The cells subcultured into the logarithmic growth phase were collected and transferred into a centrifuge tube, and centrifuged at 800 rpm for 5 min. The cells were resuspended in complete medium and counted. The cells were diluted and adjusted to a final concentration of 200000 cells/mL. The cells were then seeded into a 96-well plate with 100 μL per well. Cell administration: Each group of drug solutions was added into the 96-well plate, 100 μL per well, n=3 for each drug concentration. Meanwhile, negative wells (n=6) and blank wells (n=3) were set up. The 96-well plate was incubated in the incubator for further 3 days. CCK8 reagent was added to the 96-well plate, 20 μL per well, and then the plate was placed in the incubator for further 4 h. The absorbance of the solution was measured at a wavelength of 450 nm using an enzyme reader. The proliferation inhibition rate was calculated and the half inhibitory concentration IC50 value was calculated.

[2] = Brain tissue distribution test in mice; format: in vivo; details: IV 10 mg/kg; for AUC(0-inf) / AUC(0-t) / MRT / half-life: mouse; for half-life: read-out: T½ (converted)
Experimental: Mice were weighed and dosed, and about 50 μL of whole blood was collected from the orbital venous plexus at 5 min, 0.25 h, 0.5 h, 1 h, 2 h, 4 h, 6 h, 8 h, and 24 h after administration, using EDTA-K2 as anticoagulant. At the same time, the animals were euthanized, and the brains were removed, and the brain tissue samples were stored in a −80° C. refrigerator until analysis. The blood samples were centrifuged at 4000 rpm for 10 min at 4° C., and 20 μL of the supernatant plasma sample was taken into an EP tube and immediately stored in a −80° C. refrigerator until analysis. 10 μL of the plasma sample was transferred to a 96-well plate and 250 μL of acetonitrile (containing internal standard) was added to precipitate proteins. The samples were centrifuged at 4000 rpm/min for 20 min in a 4° C. centrifuge. The supernatant was transferred and injected into LC MS/MS to detect the drug concentration. The brain tissue samples were weighed and homogenized with 4 times ice-cold PBS, and 50 μL of the brain tissue homogenate was transferred to a 96-well plate. 500 μL of acetonitrile (containing internal standard) was added to precipitate the protein. The samples were centrifuged at 4000 rpm/min for 20 min in a 4° C. centrifuge. 380 μL of the supernatant was transferred to a new 96-well plate and 380 μL of 0.1% formic acid in water was added and mixed thoroughly. 10 μL of the sample was taken and injected into LC MS/MS to detect the drug concentration. The data were processed by Thermo LC Quan software, and the standard curve was established using the internal standard method, with the theoretical standard curve concentration as the abscissa and the peak area ratio as the ordinate (test compound peak area/internal standard peak area). Sample concentrations were calculated using the standard curve. The pharmacokinetic parameters were calculated using WinNonlin 8.2 software.

[3] = system: Mino cell xenograft; experiment: Activity test in Mino cell xenograft model; format: in vivo, NOD SCID mice; details: for Tumor volume: end of experiment, Mean ± SD

Question: With `COc1ccc(F)cc1C(=O)NCc1ccc(-c2nc(-c3ccc(N4CCN(CC5CCN(c6ccc(C7CCC(=O)NC7=O)cc6)CC5)CC4)cc3)n3ccnc(N)c23)cc1` (stereo not drawn) [Compound I-18] as the molecule, how does the IC50 [1] read?
Answer: The IC50 was < 25 nM.

Question: And the “B/P Ratio AUC (brain)/AUC (plasma)” value [2]?
Answer: The value was 6.86% ± 0.01.

Question: And the AUC(0-inf) ([2]; brain)?
Answer: Its AUC(0-inf) is 2710 ± 149 ng·h/mL.

Question: What about the AUC(0-t) ([2]; brain) of the same molecule?
Answer: Its AUC(0-t) is 2270 ± 126 ng·h/mL.

Question: And the MRT ([2]; brain)?
Answer: Its MRT is 7.17 ± 0.59 h.

Question: And the half-life ([2]; brain)?
Answer: Its half-life is 9.39 ± 3.04 h.

Question: And the AUC(0-inf) ([2]; plasma)?
Answer: Its AUC(0-inf) is 39800 ± 4460 ng·h/mL.

Question: And the AUC(0-t) ([2]; plasma)?
Answer: Its AUC(0-t) is 39100 ± 5080 ng·h/mL.

Question: And the MRT ([2]; plasma)?
Answer: Its MRT is 4.88 ± 0.14 h.

Question: And the half-life ([2]; plasma)?
Answer: The half-life was 4.44 ± 1.38 h.

Question: For `COc1ccc(F)cc1C(=O)NCc1ccc(-c2nc(-c3ccc(N4CCN(CC5CCN(c6ccc(N7CCC(=O)NC7=O)c(C)c6)CC5)CC4)cc3)n3ccnc(N)c23)cc1` [Compound I-40], which “TGITV (Relative tumor volume inhibition rate)” value ([3]; 30 mg/kg) is on record?
Answer: Its value is 76.65%.

Question: And the Tumor volume ([3]; 30 mg/kg)?
Answer: The Tumor volume was 1146.34 ± 435.82 mm^3.

Question: And the IC50 [1]?
Answer: Its IC50 is < 25 nM.

Question: For `COc1ccc(F)cc1C(=O)NCc1ccc(-c2nn(-c3ccc(N4CCN(CC5CCN(c6ccc7c(c6)CN(C6CCC(=O)NC6=O)C7=O)CC5)CC4)nc3)c3ncnc(N)c23)cc1F` (stereo not drawn) [II-5, N-(4-(4-amino-1-(6-(4-((1-(2-(2,6-dioxopiperidin-3-yl)-1-oxoisoindolin-5-yl)piperidin-4-yl)methyl)piperazin-1-yl)pyridin-3-yl)-1H-pyrazolo[3,4-d]pyrimidin-3-yl)-2-fluorobenzyl)-5-fluoro-2-methoxybenzamide], which IC50 [1] is on record?
Answer: Its IC50 is 9 nM.

Question: With `COc1ccc(F)cc1C(=O)NCc1ccc(-c2nn(-c3ccc(N4CCN(CC5CCN(c6ccc7c(c6)C(=O)N(C6CCC(=O)NC6=O)C7=O)CC5)CC4)nc3)c3ncnc(N)c23)cc1C` (stereo not drawn) [II-6, N-(4-(4-amino-1-(6-(4-((1-(2-(2,6-dioxopiperidin-3-yl)-1,3-dioxoisoindol-5-yl)piperidin-4-yl)methyl)piperazin-1-yl)pyridin-3-yl)-1H-pyrazolo[3,4-d]pyrimidin-3-yl)-2-methylbenzyl)-5-fluoro-2-methoxybenzamide] as the molecule, how does the IC50 [1] read?
Answer: The IC50 was 21 nM.

Question: With `COc1ccc(F)cc1C(=O)NCc1ccc(-c2nn(-c3ccc(C4CCN(CC5CCN(c6ccc7c(c6)C(=O)N(C6CCC(=O)NC6=O)C7=O)CC5)CC4)nc3)c3ncnc(N)c23)cc1` (stereo not drawn) [II-7, N-(4-(4-amino-1-(6-(1-((1-(2-(2,6-dioxopiperidin-3-yl)-1,3-dioxoisoindolin-5-yl)piperidin-4-yl)methyl)piperidin-4-yl)pyridin-3-yl)-1H-pyrazolo[3,4-d]pyrimidin-3-yl)benzyl)-5-fluoro-2-methoxybenzamide] as the molecule, how does the IC50 [1] read?
Answer: The IC50 was 18 nM.

Question: With `COc1ccc(F)cc1C(=O)NCc1ccc(-c2nn(-c3ccc(N4CCN(CC5CCN(c6ccc7c(c6)C(=O)N(C6CCC(=O)NC6=O)C7)CC5)CC4)cc3)c(N)c2C(N)=O)cc1` (stereo not drawn) [II-10] as the molecule, how does the IC50 [1] read?
Answer: The IC50 was < 25 nM.

Question: With `COc1ccc(F)cc1C(=O)NCc1ccc(-c2nn(-c3ccc(N4CCN(CC5CCN(c6ccc7c(c6)CN(C6CCC(=O)NC6=O)C7=O)CC5)CC4)nc3)c3ccnc(N)c23)cc1` (stereo not drawn) [II-12, N-(4-(4-amino-1-(6-(4-((1-(2-(2,6-dioxopiperidin-3-yl)-1-oxoisoindol-5-yl)piperidin-4-yl)methyl)piperazin-1-yl)pyridin-3-yl)-1H-pyrazolo[4,3-c]pyridin-3-yl)benzyl)-5-fluoro-2-methoxybenzamide] as the molecule, how does the IC50 [1] read?
Answer: The IC50 was < 500 nM.

Question: Which IC50 [1] does the source give for `COc1ccc(F)cc1C(=O)NCc1ccc(-n2c(=O)n(-c3ccc(N4CCN(CC5CCN(c6ccc7c(c6)CN(C6CCC(=O)NC6=O)C7=O)CC5)CC4)cc3)c3ccnc(N)c32)cc1` (stereo not drawn) [II-24, N-(4-(4-amino-1-(4-(-4-((1-(2-(2,6-dioxopiperidin-3-yl)-1-oxoisoindol-5-yl)piperidin-4-yl)methyl)piperazin-1-yl)phenyl)-2-oxo-1,2-dihydro-3H-imidazo[4,5-c]pyridin-3-yl)benzyl)-5-fluoro-2-methoxybenzamide] here?
Answer: Its IC50 is < 50 nM.

Question: With `COc1ccc(F)cc1C(=O)NCc1ccc(-c2nn(-c3ccc(N4CCN(CC5CCN(c6ccc7c(c6)C(=O)N(C6CCC(=O)NC6=O)C7)CC5)CC4)nc3)c(N)c2C(N)=O)cc1` (stereo not drawn) [II-34, 5-amino-1-(6-(4-((1-(2-(2,6-dioxopiperidin-3-yl)-3-oxoisoindolin-5-yl)piperidin-4-yl)methyl)piperazin-1-yl)pyridin-3-yl)-4-(((5-fluoro-2-methoxybenzamido)methyl)phenyl)-1H-pyrazole-4-carboxamide] as the molecule, how does the IC50 [1] read?
Answer: Its IC50 is < 25 nM.

Question: With `Nc1ncnc2c1c(-c1ccc(Oc3ccccc3)cc1)nn2-c1ccc(N2CCC(CN3CCN(c4ccc5c(c4)C(=O)N(C4CCC(=O)NC4=O)C5=O)CC3)CC2)nc1` (stereo not drawn) [II-37, 5-(4-((1-(5-(4-amino-3-(4-phenoxyphenyl)-1H-pyrazolo[3,4-d]pyrimidin-1-yl)pyridin-2-yl)piperidin-4-yl)methyl)piperazin-1-yl)-2-(2,6-dioxopiperidin-3-yl) isoindoline-1,3-dione] as the molecule, how does the IC50 [1] read?
Answer: The IC50 was < 25 nM.

Question: With `COc1ccc(F)cc1C(=O)NCc1ccc(-c2nn(-c3ccc(N4CCN(CC5CCN(c6ccc7c(c6)CN(C6CCC(=O)NC6=O)C7=O)CC5)C[C@@H]4C)nc3)c3ncnc(N)c23)cc1` (stereo partly drawn) [II-38, N-(4-(4-amino-1-(6-((2S)-4-((1-(2-(2,6-dioxopiperidin-3-yl)-1-oxoisoindol-5-yl)piperidin-4-yl)methyl)-2-methylpiperazin-1-yl)pyridin-3-yl)-1H-pyrazolo[3,4-d]pyrimidin-3-yl)benzyl)-5-fluoro-2-methoxybenzamide] as the molecule, how does the IC50 [1] read?
Answer: Its IC50 is < 25 nM.

Question: For `COc1ccc(F)cc1C(=O)NCc1ccc(-c2nn(-c3ccc(C4CCN(CC5CCN(c6ccc7c(c6)C(=O)N(C6CCC(=O)NC6=O)C7)CC5)CC4)cc3)c(N)c2C(N)=O)cc1` (stereo not drawn) [II-39], which IC50 [1] is on record?
Answer: Its IC50 is < 25 nM.

Question: Which IC50 [1] does the source give for `Nc1ncnc2c1c(-c1ccc(Oc3ccccc3)cc1)nn2-c1ccc(N2CCN(C[C@@H]3CCCC[C@H]3CN3CCN(c4ccc5c(c4)CN(C4CCC(=O)NC4=O)C5=O)CC3)CC2)nc1` (stereo partly drawn) [III-19, 3-(5-(4-(((1R,2R)-2-((4-(5-(4-amino-3-(4-phenoxyphenyl)-1H-pyrazolo[3,4-d]pyrimidin-1-yl)pyridin-2-yl)piperazin-1-yl)methyl)cyclohexyl)methyl)piperazin-1-yl)-1-oxoisoindolin-2-yl)piperidine-2,6-dione] here?
Answer: The IC50 was < 100 nM.

Question: Which IC50 [1] does the source give for `Cc1cc(N2CCN(C[C@@H]3CCCC[C@H]3CN3CCN(c4ccc(-n5nc(-c6ccc(Oc7ccccc7)cc6)c6c(N)ncnc65)cn4)CC3)CC2)ccc1N1CCC(=O)NC1=O` [III-20, 1-(4-(4-(((1R,2R)-2-((4-(5-(4-amino-3-(4-phenoxyphenyl)-1H-pyrazolo[3,4-d]pyrimidin-1-yl)pyridin-2-yl)piperazin-1-yl)methyl)cyclohexyl)methyl)piperazin-1-yl)-2-methylphenyl)dihydropyrimidine-2,4(1H,3H)-dione] here?
Answer: The IC50 was < 500 nM.

Question: Which “TGITV (Relative tumor volume inhibition rate)” value ([3]; 50 mg/kg) does the source give for `C=CC(=O)N1CCC[C@@H](n2nc(-c3ccc(Oc4ccccc4)cc3)c3c(N)ncnc32)C1` [Ibrutinib, ibrutinib, reference compound] here?
Answer: Its value is 40.73%.

Question: And the Tumor volume ([3]; 50 mg/kg)?
Answer: Its Tumor volume is 3018.11 ± 1293.65 mm^3.
